In patent US20260207600A1, “METHODS OF TREATMENT WITH MYOSIN MODULATOR” (MYOKARDIA, INC., priority 2019, published 2026):
Several values for one entry are separate records, joined by “and”; a condition that tells them apart may be missing. Equal values may be shown once.

Legend:
[1] = test system: subjects with symptomatic non-obstructive hypertrophic cardiomyopathy (nHCM); test: […]-HCM Phase 2 randomized, double-blind, placebo-controlled, concentration-guided study; assay type: in vivo, human; conditions: baseline and week 16
anaesthetized rats = test: Counteraction of mavacamten effects by dobutamine in anaesthetized rats; assay type: in vivo, rat
From the text: (§1) Additional supportive measures, e.g., intravenous volume supplementation and/or the use of arterial vasoconstrictor agents (a adrenergic agonists) may complement the use of a β adrenergic agonist.

[2] = test system: individuals with symptomatic obstructive hypertrophic cardiomyopathy (oHCM); test: PIONEER-OLE Phase 2 open-label extension study of mavacamten; assay type: in vivo
Description: All subjects were started on a dose of 5 mg QD.
To maximize safety, the starting dose will be 5 mg for all subjects. Subjects will return at Week 4 (±4 days) for a plasma PK sample to measure drug levels and to undergo echocardiography to determine LVOT gradient (at rest, after a Valsalva maneuver, and after exercise) and left ventricular ejection fraction (LVEF).
After Week 6, additional study visits will occur at Week 8 (±7 days), Week 12 (±7 days), and every 12 weeks (±7 days) thereafter. Subjects also will be contacted by phone in between clinic visits, at Week 18 and every 12 weeks thereafter. An end of study (EOS) visit will occur 12 weeks (±7 days) after the last administration of study drug. Visits (including the Screening visit which serves as the baseline) will entail recording vital signs, targeted physical examination, ECGs, safety laboratory tests, N-terminal pro b-type natriuretic peptide (NT-proBNP), adverse events (AEs), New York Heart Association (NYHA) functional class, Kansas City Cardiomyopathy Questionnaire (KCCQ) score, and concomitant medications. At Weeks 4, 8, 24, 36, 48, 60, 72, 96, 120, 144, 156/early termination (ET), and 168/EOS, a predose blood sample for assessment of drug concentration will be obtained. A standard TTE (including but not limited to assessment of LVOT gradient at rest and after Valsalva) will be performed at baseline, at Weeks 4, 8, 12, 24, 36, 48, 72, 96, 120, 144, 156/ET, and 168/EOS. In addition, a stress echocardiogram (with assessment of LVOT gradient post-exercise) will also be performed at baseline, Weeks 4, 48, 72, 156/ET, and 168/EOS.
The study endpoints include safety, tolerability, and select measures of efficacy using individualized dosing. Key measurements include LVOT gradient, LVEF, NT-proBNP.
• 1. Frequency and severity of treatment-emergent AEs and SAEs, • 2. Frequency of cardiovascular (CV) death, • 3. Frequency of sudden death, • 4. Frequency of CV hospitalization, • 5. Frequency of heart failure requiring the initiation of oral loop diuretics or the administration of intravenous loop diuretics, • 6. Frequency of myocardial infarction, • 7. Frequency of ventricular arrhythmias (ventricular tachycardia, ventricular fibrillation, ventricular flutter, torsade de pointe), • 8. Frequency of syncope, • 9. Frequency of seizures, • 10. Frequency of stroke, • 11. Frequency of LVEF≤45% as measured by echocardiography, • 12. QT and QTcF intervals over time.
• 1. Post-exercise, post-Valsalva, and resting LVOT gradient over time, • 2. NYHA functional class over time, • 3. KCCQ scores over time, • 4. NT-proBNP over time, • 5. Frequency of septal reduction therapy.

CYP3A4/5 = test: In vitro contribution of CYP enzymes to mavacamten metabolism; assay type: in vitro ADME
[3] = test system: isolated adult rat ventricular myocytes; test: Counteraction of mavacamten effects by isoproterenol in isolated myocytes in vitro; assay type: cell-based
From the text: as §1

[4] = Change from Baseline to Week 48

## CC(C)n1c(=O)cc(N[C@@H](C)c2ccccc2)[nH]c1=O [mavacamten, (S)-3-Isopropyl-6-((1-phenylethyl)amino)pyrimidine-2, 4(1H,3H)-dione]
[1]
  hs-cTnI, post-hoc analysis of banked serum samples: confirmed the reduction in cTnI
Anaesthetized rats
  Reversal of pharmacologic effects by β adrenergic agonist: can be counteracted by β adrenergic agonists
[2]; 48-week period
  Cardiac-related adverse events (AEs) attributed to study drug: no cardiac-related adverse events
[2]; [4]
  E/e′ lateral: −3.4
  NT-proBNP, median: -472 pg/mL
  e′lat, mean ± SD: 1.6 cm/s and 1.6 ± 1.1 cm/s
[2]; Change from Baseline to Week 48, Table 1.1
  IVS: −1.5 mm
[2]; Week 12
  E/e′ lateral: 9.8
  Interventricular septal thickness, Change from baseline, mean ± SD: −0.7 ± 0.7 mm
  Interventricular septal thickness, Mean ± SD: 15.9 ± 2.7 mm
  LV maximum wall thickness, Change from baseline, mean ± SD: −0.8 ± 2.0 mm
  LV maximum wall thickness, Mean ± SD: 20.1 ± 2.5 mm
  LV posterior wall thickness, Change from baseline, mean ± SD: 0.2 ± 0.8 mm
  LV posterior wall thickness, Mean ± SD: 11.9 ± 2.2 mm
  NT-proBNP, median: 99 pg/mL
  Systolic anterior motion of the mitral valve present, %: (46.2) %
  e′lat, mean ± SD: 8.4 ± 2.3 cm/s
[2]; Week 12, Table 1.1
  IVS: 16.0 mm
[2]; Week 24
  E/e′ lateral: 10.2
  Interventricular septal thickness, Change from baseline, mean ± SD: −0.7 ± 1.1 mm
  Interventricular septal thickness, Mean ± SD: 15.8 ± 2.7 mm
  LV maximum wall thickness, Change from baseline, mean ± SD: −1.8 ± 1.8 mm
  LV maximum wall thickness, Mean ± SD: 19.1 ± 2.4 mm
  LV posterior wall thickness, Change from baseline, mean ± SD: 0.2 ± 0.9 mm
  LV posterior wall thickness, Mean ± SD: 11.8 ± 2.0 mm
  NT-proBNP, median: 93 pg/mL
  Systolic anterior motion of the mitral valve present, %: (46.2) %
  e′lat, mean ± SD: 7.9 ± 2.2 cm/s
[2]; Week 24, Table 1.1
  IVS: 15.8 mm
[2]; Week 36
  E/e′ lateral: 8.5
  Interventricular septal thickness, Change from baseline, mean ± SD: −1.2 ± 1.7 mm
  Interventricular septal thickness, Mean ± SD: 15.4 ± 2.7 mm
  LV maximum wall thickness, Change from baseline, mean ± SD: −1.8 ± 1.9 mm
  LV maximum wall thickness, Mean ± SD: 19.0 ± 2.2 mm
  LV posterior wall thickness, Change from baseline, mean ± SD: 0.0 ± 1.5 mm
  LV posterior wall thickness, Mean ± SD: 11.7 ± 1.7 mm
  NT-proBNP, median: 168 pg/mL
  Systolic anterior motion of the mitral valve present, %: (58.3) %
  e′lat, mean ± SD: 8.7 ± 2.8 cm/s
[2]; Week 36, Table 1.1
  IVS: 15.4 mm
[2]; Week 48
  E/e′ lateral: 9.1
  Interventricular septal thickness, Change from baseline, mean ± SD: −1.2 ± 2.3 mm
  Interventricular septal thickness, Mean ± SD: 15.5 ± 2.0 mm
  LV maximum wall thickness, Change from baseline, mean ± SD: −1.4 ± 2.2 mm
  LV maximum wall thickness, Mean ± SD: 19.4 ± 2.7 mm
  LV posterior wall thickness, Change from baseline, mean ± SD: −0.5 ± 1.9 mm
  LV posterior wall thickness, Mean ± SD: 11.1 ± 1.9 mm
  NT-proBNP, median: 137 pg/mL
  Systolic anterior motion of the mitral valve present, %: (33.3) %
  Valsalva LVOT gradient, mean change: −66.0 mm Hg
  e′lat, mean ± SD: 8.0 ± 1.6 cm/s
  mean resting LVOT gradient: 14.0 mm Hg
  patients achieving a post-exercise LVOT gradient<30 mm Hg: Five
  post-exercise LVOT gradient, mean change: −85.1 mm Hg
  resting LVOT gradient for all subjects: below 50 mmHg
  subjects achieving asymptomatic status (NYHA Class I): nine out of twelve
  subjects with resting LVOT gradient below the 30 mmHg threshold: 11 of 12
[2]; Week 48, Table 1.1
  IVS: 15 mm and 15.3 mm
[2]; Week 48, listed as Mavacamten
  Interventricular septal thickness, Change from baseline, mean ± SD: −1.2 mm
  LV maximum wall thickness, Change from baseline, mean ± SD: −1.4 mm
[2]; Week 48, scores range 0-100
  KCCQ mean score: 87.3
[2]; all timepoints throughout the study
  LVEF for all patients: above 50%
[2]; baseline to Week 48
  resting LVOT gradient, mean change: −52.7 mm Hg
[2]; in 3 subjects
  Number of AEs considered potentially related to study drug: 8
[2]; in 3 subjects, not cardiovascular, not related to study drug
  number of SAEs: 4
[2]; most mild or moderate, and transient
  Number of AEs: 64
[2]; one-year treatment period
  Tolerability: well tolerated
CYP3A4/5
  percent contribution to the metabolism of mavacamten: 18%
[3]
  Reversal of pharmacologic effects by β adrenergic agonist: can be counteracted by β adrenergic agonists
